# Results published in patent US20240059703A1 (AMGEN INC., priority 2021, published 2024).
# Experiments:
# [1] = test system: MIA PaCa-2 (human pancreatic carcinoma) cells; assay: Cell Viability Assay (CellTiter-Glo), MIA PaCa-2; type: cell-based
# Experimental: Serially-diluted compound or DMSO was added to the cells, and plates were incubated at 37° C., 5% CO2 for 72 h. Cell viability was measured using a CellTiter-Glo® Luminescent Cell Viability Assay kit (Promega) according to the manufacturer's protocol. The luminescence signal of treated samples was normalized to DMSO control, and data were analyzed using a 4-parameter logistic model to calculate IC50 values.
# [2] = test system: A549 (human lung carcinoma) cells; assay: Cell Viability Assay (CellTiter-Glo), A549; type: cell-based; settings: Homo sapiens, A549, 72 h
# Outline: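 Seeding at 1.67E+04 cells/mL is followed by overnight attachment at 37° C., 5% CO2. Serially diluted compound is added for 72 h. Viability is read by CellTiter-Glo luminescence, scaled to DMSO and fitted (4-parameter logistic) to give IC50.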
# KRAS G12C = KRAS G12C (Homo sapiens (Human), UniProt P01116, C118A/G12C); assay: 2 h coupled exchange assay; type: biochemical; settings: Avg 2 h Coupled exchange IC50, 2 h compound pre-incubation
# Experimental: The term “2 h coupled exchange assay” or “20 h coupled exchange assay” as used herein refers to the assay described in the Section entitled “BIOLOGICAL EVALUATION.”
# Sequence of KRAS G12C (P01116 other isoform, or with tags, fused parts or gaps G12C/C118A): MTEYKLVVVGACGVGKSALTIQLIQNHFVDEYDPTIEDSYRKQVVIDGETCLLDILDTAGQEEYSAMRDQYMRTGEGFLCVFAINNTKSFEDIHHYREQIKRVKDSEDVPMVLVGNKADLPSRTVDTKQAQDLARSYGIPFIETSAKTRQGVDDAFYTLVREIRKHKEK
"IC50 ([1]; Homo sapiens, MIA PaCa-2, 72 h) [nM]",IC50 [2] [nM],IC50 (KRAS G12C) [nM],IC50 ([1]; 72 h) [nM],SMILES
714,3780,74,,"C=CC(=O)N1CC2(CCN(c3nc4c(c(-c5ccc(F)cc5F)c3C#N)CCC(c3scnc3C)=C4)C2)C1 [Example 23-21, 4-(2,4-difluorophenyl)-7-(4-methyl-1,3-thiazol-5-yl)-2-(2-(2-propenoyl)-2,6-diazaspiro[3.4]octan-6-yl)-5,6-dihydro-3-quinolinecarbonitrile]"
725,> 5000,182,,"C=CC(=O)N1CC2(CCN(c3nc4c(c(-c5c(F)cccc5Cl)c3C#N)CCC(c3scnc3C)=C4)C2)C1 [Example 23-22, 4-(2-chloro-6-fluorophenyl)-7-(4-methyl-1,3-thiazol-5-yl)-2-(2-(2-propenoyl)-2,6-diazaspiro[3.4]octan-6-yl)-5,6-dihydro-3-quinolinecarbonitrile]"
776,> 5000,97,,"C=CC(=O)N1CC2(CCN(c3nc4c(c(-c5ccc(F)cc5Cl)c3C#N)CO[C@@H](c3scnc3C)C4)C2)C1 [Example 23-27, (7R)-4-(2-chloro-4-fluorophenyl)-7-(4-methyl-1,3-thiazol-5-yl)-2-(2-(2-propenoyl)-2,6-diazaspiro[3.4]octan-6-yl)-7,8-dihydro-5H-pyrano[4,3-b]pyridine-3-carbonitrile]"
1400,5680,415,,"C=CC(=O)N1CC2(CCN(c3nc4c(c(-c5ccc(F)cc5Cl)c3C#N)CO[C@H](c3scnc3C)C4)C2)C1 [Example 23-28, (7S)-4-(2-chloro-4-fluorophenyl)-7-(4-methyl-1,3-thiazol-5-yl)-2-(2-(2-propenoyl)-2,6-diazaspiro[3.4]octan-6-yl)-7,8-dihydro-5H-pyrano[4,3-b]pyridine-3-carbonitrile]"
1320,> 5000,48,,"C=CC(=O)N1CC2(CCN(c3nc4c(c(-c5c(O)cccc5F)c3C#N)CCC(c3scnc3C)=C4)C2)C1 [Example 23-29, 4-(2-fluoro-6-hydroxyphenyl)-7-(4-methyl-1,3-thiazol-5-yl)-2-(2-(2-propenoyl)-2,6-diazaspiro[3.4]octan-6-yl)-5,6-dihydro-3-quinolinecarbonitrile]"
1950,8390,132,,"C=CC(=O)N1CC2(CCN(c3nc4c(c(-c5ccc(F)cc5)c3C#N)CCC(c3scnc3C)=C4)C2)C1 [Example 23-30, 4-(4-fluorophenyl)-7-(4-methyl-1,3-thiazol-5-yl)-2-(2-(2-propenoyl)-2,6-diazaspiro[3.4]octan-6-yl)-5,6-dihydro-3-quinolinecarbonitrile]"
2240,6720,168,,"C=CC(=O)N1CC2(CCN(c3nc4c(c(-c5cc(OC)ccc5Cl)c3C#N)CCC(c3scnc3C)=C4)C2)C1 [Example 23-31, 4-(2-chloro-5-methoxyphenyl)-7-(4-methyl-1,3-thiazol-5-yl)-2-(2-(2-propenoyl)-2,6-diazaspiro[3.4]octan-6-yl)-5,6-dihydro-3-quinolinecarbonitrile]"
1090,> 5000,97,,"C=CC(=O)N1CC2(CCN(c3nc4c(c(-c5c(O)cccc5Cl)c3C#N)CCC(c3scnc3C)=C4)C2)C1 [Example 23-34, 4-(2-chloro-6-hydroxyphenyl)-7-(4-methyl-1,3-thiazol-5-yl)-2-(2-(2-propenoyl)-2,6-diazaspiro[3.4]octan-6-yl)-5,6-dihydro-3-quinolinecarbonitrile]"
2400,21000,840,,"C=CC(=O)N1CC2(CCN(c3nc4c(c(-c5c(O)cccc5Cl)c3C#N)COC(c3scnc3C)C4)C2)C1 [Example 23-35, (7R)-4-(2-chloro-6-hydroxyphenyl)-7-(4-methyl-1,3-thiazol-5-yl)-2-(2-(2-propenoyl)-2,6-diazaspiro[3.4]octan-6-yl)-7,8-dihydro-5H-pyrano[4,3-b]pyridine-3-carbonitrile (7S)-4-(2-chloro-6-hydroxyphenyl)-7-(4-methyl-1,3-thiazol-5-yl)-2-(2-(2-propenoyl)-2,6-diazaspiro[3.4]octan-6-yl)-7,8-dihydro-5H-pyrano[4,3-b]pyridine-3-carbonitrile]"
1530,9320,272,,"C=CC(=O)N1CC2(CCN(c3nc4c(c(-c5c(F)cccc5Cl)c3C#N)COC(c3scnc3C)C4)C2)C1 [Example 23-36, (7R)-4-(2-chloro-6-fluorophenyl)-7-(4-methyl-1,3-thiazol-5-yl)-2-(2-(2-propenoyl)-2,6-diazaspiro[3.4]octan-6-yl)-7,8-dihydro-5H-pyrano[4,3-b]pyridine-3-carbonitrile (7S)-4-(2-chloro-6-fluorophenyl)-7-(4-methyl-1,3-thiazol-5-yl)-2-(2-(2-propenoyl)-2,6-diazaspiro[3.4]octan-6-yl)-7,8-dihydro-5H-pyrano[4,3-b]pyridine-3-carbonitrile]"
3120,14600,179,,C=CC(=O)N1CC2(CCN(c3nc4c(c(-c5ccccc5F)c3C#N)CCC3(c5scnc5C)C4C3(F)F)C2)C1 (stereo not drawn) [Example 23-37]

# Further lines, the compound ahead of its results:
SMILES,"IC50 ([1]; Homo sapiens, MIA PaCa-2, 72 h) [nM]",IC50 [2] [nM],IC50 (KRAS G12C) [nM],IC50 ([1]; 72 h) [nM]
"C=CC(=O)N1CC2(CCN(c3nc4c(c(-c5ccccc5F)c3C#N)CC[C@@](C)(c3scnc3C)C4)C2)C1 [Example 23-13, (7R)-4-(2-fluorophenyl)-7-methyl-7-(4-methyl-1,3-thiazol-5-yl)-2-(2-(2-propenoyl)-2,6-diazaspiro[3.4]octan-6-yl)-5,6,7,8-tetrahydro-3-quinolinecarbonitrile]",911,> 5000,39,
"C=CC(=O)N1CC2(CCN(c3nc4c(c(-c5ncccc5C)c3C#N)COC(c3scnc3C)C4)C2)C1 [Example 23-14, (7R)-4-(3-methyl-2-pyridinyl)-7-(4-methyl-1,3-thiazol-5-yl)-2-(2-(2-propenoyl)-2,6-diazaspiro[3.4]octan-6-yl)-7,8-dihydro-5H-pyrano[4,3-b]pyridine-3-carbonitrile (7S)-4-(3-methyl-2-pyridinyl)-7-(4-methyl-1,3-thiazol-5-yl)-2-(2-(2-propenoyl)-2,6-diazaspiro[3.4]octan-6-yl)-7,8-dihydro-5H-pyrano[4,3-b]pyridine-3-carbonitrile]",1310,> 25000,802,
"C=CC(=O)N1CC2(CCN(c3nc4c(c(-c5ccccc5Cl)c3C#N)COC(c3scnc3C)C4)C2)C1 [Example 23-15, (7R)-4-(2-chlorophenyl)-7-(4-methyl-1,3-thiazol-5-yl)-2-(2-(2-propenoyl)-2,6-diazaspiro[3.4]octan-6-yl)-7,8-dihydro-5H-pyrano[4,3-b]pyridine-3-carbonitrile (7S)-4-(2-chlorophenyl)-7-(4-methyl-1,3-thiazol-5-yl)-2-(2-(2-propenoyl)-2,6-diazaspiro[3.4]octan-6-yl)-7,8-dihydro-5H-pyrano[4,3-b]pyridine-3-carbonitrile]",972,> 5000,196,
"C=CC(=O)N1CC2(CCN(c3nc4c(c(-c5ccc(F)cc5F)c3C#N)COC(c3scnc3C)C4)C2)C1 [Example 23-17, (7R)-4-(2,4-difluorophenyl)-7-(4-methyl-1,3-thiazol-5-yl)-2-(2-(2-propenoyl)-2,6-diazaspiro[3.4]octan-6-yl)-7,8-dihydro-5H-pyrano[4,3-b]pyridine-3-carbonitrile (7S)-4-(2,4-difluorophenyl)-7-(4-methyl-1,3-thiazol-5-yl)-2-(2-(2-propenoyl)-2,6-diazaspiro[3.4]octan-6-yl)-7,8-dihydro-5H-pyrano[4,3-b]pyridine-3-carbonitrile]",707,> 5000,98,
"C=CC(=O)N1CC2(CCN(c3nc4c(c(-c5ccc(F)cc5Cl)c3C#N)CCC(c3scnc3C)=C4)C2)C1 [Example 23-18, 4-(2-chloro-4-fluorophenyl)-7-(4-methyl-1,3-thiazol-5-yl)-2-(2-(2-propenoyl)-2,6-diazaspiro[3.4]octan-6-yl)-5,6-dihydro-3-quinolinecarbonitrile]",,2880,104,591
"C=CC(=O)N1CC2(CCN(c3nc4c(c(-c5ccccc5Cl)c3C#N)CCC(c3scnc3C)=C4)C2)C1 [Example 23-19, 4-(2-chlorophenyl)-7-(4-methyl-1,3-thiazol-5-yl)-2-(2-(2-propenoyl)-2,6-diazaspiro[3.4]octan-6-yl)-5,6-dihydro-3-quinolinecarbonitrile]",537,3290,87,
"C=CC(=O)N1CC2(CCN(c3nc4c(c(-c5ccc(F)cc5Cl)c3C#N)COC(c3scnc3C)C4)C2)C1 [Example 23-20, (7R)-4-(2-chloro-4-fluorophenyl)-7-(4-methyl-1,3-thiazol-5-yl)-2-(2-(2-propenoyl)-2,6-diazaspiro[3.4]octan-6-yl)-7,8-dihydro-5H-pyrano[4,3-b]pyridine-3-carbonitrile (7S)-4-(2-chloro-4-fluorophenyl)-7-(4-methyl-1,3-thiazol-5-yl)-2-(2-(2-propenoyl)-2,6-diazaspiro[3.4]octan-6-yl)-7,8-dihydro-5H-pyrano[4,3-b]pyridine-3-carbonitrile]",1150,8250,227,
